# Laboratory results reported in patent US5378718A, “1,4-dihydropyridine derivatives” (Cedona Pharmaceuticals B.V., priority 1990, dated 1995).
# Test system: contracted rat aorta
# Test: In vitro rat aorta assay, relaxation of KCl-contracted aorta strips
# Format: cell-based
# Settings: rat thoracic aorta strips contracted with 50 mM KCl, 1.25 mM CaCl2; concentration at which residual contraction is 50% of maximum
# Description: Strips of thoracial rat aortae (without aortic arch, helically cut; length 1-1.5 cm; width about 2 mm) were place in an organ bath [20 ml; Krebs Ringer medium bubbled with O2 /CO2 (95/5%) at 37` C.]. A resting tension of 0.5 g was applied and the preparations were equilibrated during 100 min (fresh buffer solution every 20 min). The strips were isotonically contracted with 50 mM KCl (equimolar part of NaCl in buffer omitted) in the presence of 1.25 mM CaCl2.
# Drug-induced relaxation was tested at increasing concentration (half log steps), till maximal or full relaxation (corresponding to basal precontraction value of organ length) had been reached.
# Responses were calculated as change in organ length relatively to maximal displacement by contraction, EC50 values corresponding to the drug concentration at which residual contraction is 50% of maximum.
row,Compound,EC50 [nM]
1,COC(=O)C1=C(C)NC(C)=C(C(=O)OC)C1c1ccccc1OC[C@@H](C)CO[N+](=O)[O-] [Example XXXVIII],75
2,"CCOC(=O)C1=C(C)NC(C)=C(C(=O)OC)C1c1ccccc1OCCCO[N+](=O)[O-] (stereo not shown) [Example XXVI, 2,6-Dimethyl-3-ethoxycarbonyl-5-methoxycarbonyl-4-[2-(3-nitroxypropoxy)phenyl]-1,4-dihydropyridine]",12
3,"CCOC(=O)C1=C(C)NC(C)=C(C(=O)OC)C1c1ccccc1OCCCCO[N+](=O)[O-] (stereo not shown) [Example XXIX, 2,6-Dimethyl-3-ethoxycarbonyl-5-methoxycarbonyl-4-[2-(4-nitroxybutoxy)phenyl]-1,4-dihydropyridine×2H2 O]",2.6
4,"CCOC(=O)C1=C(C)NC(C)=C(C(=O)OCC)C1c1ccccc1OCCCCCCCCCCO[N+](=O)[O-] [Example XXV, 3,5-Diethoxycarbonyl-2,6-dimethyl-4-[2-(10-nitroxy-decyloxy)phenyl]-1,4-dihydropyridine]",67
5,"COC(=O)C1=C(C)NC(C)=C(C(=O)OC)C1c1ccccc1OC1CCCCC1O[N+](=O)[O-] (stereo not shown) [Example XXXVII, 3,5-Dimethoxycarbonyl-2,6-dimethyl-4-[2-(2-nitroxycyclohexoxy)phenyl]-1,4-dihydropyridine×methanol]",68
6,"COC(=O)C1=C(C)NC(C)=C(C(=O)OC)C1c1ccccc1OCC(C)O[N+](=O)[O-] (stereo not shown) [Example XXXIII, 3,5-Dimethoxycarbonyl-2,6-dimethyl-4-{2-[2-nitroxypropyloxy)phenyl}-1,4-dihydropyridine]",16
7,COC(=O)C1=C(C)NC(C)=C(C(=O)OC)C1c1cc(Cl)ccc1OCCO[N+](=O)[O-] [Example XV],85
8,CCOC(=O)C1=C(C)NC(C)=C(C(=O)OCC)C1c1ccccc1OCCCO[N+](=O)[O-] [Example XXVIII],7.7
9,"CCOC(=O)C1=C(C)NC(C)=C(C(=O)OC)C1c1ccccc1OCC(C)(C)CO[N+](=O)[O-] (stereo not shown) [Example XXIII, 2,6-Dimethyl-4-[2-(2,2-dimethyl-3-nitroxypropoxy)-phenyl]-3-ethoxycarbonyl-5-methoxycarbonyl-1,4-dihydro-pyridine×H2 O]",28
10,"CCOC(=O)C1=C(C)NC(C)=C(C(=O)OCC)C1c1ccccc1OCC(C)(C)CO[N+](=O)[O-] [Example XXII, 3,5-Diethoxycarbonyl-2,6-dimethyl-4-[2-(2,2-dimethyl-3-nitroxypropoxy)-phenyl]-1,4-dihydropyridine]",60
11,"COC(=O)C1=C(C)NC(C)=C(C(=O)OC)C1c1ccccc1OCCCCCCO[N+](=O)[O-] [Example XXX, 3,5-Dimethoxycarbonyl-2,6-dimethyl-4-[2-(6-nitroxyhexyloxy)phenyl]-1,4-dihydropyridine]",9
12,"CCOC(=O)C1=C(C)NC(C)=C(C(=O)OCC)C1c1ccccc1OCCO[N+](=O)[O-] [Example XXI, 3,5-Diethoxycarbonyl-2,6-dimethyl-4-[2-(2-nitroxy-ethoxy)phenyl]-1,4-dihydropyridine]",14
13,"COC(=O)C1=C(C)NC(C)=C(C(=O)OC)C1c1ccccc1OC[C@H]1CC[C@H](CO[N+](=O)[O-])CC1 [Example XXXII, 3,5-Dimethoxycarbonyl-2,6-dimethyl-4-{2-[4-nitroxymethyl(trans)cyclohexylmethoxy]phenyl}-1,4-dihydropyridine]",6.5
14,"COC(=O)C1=C(C)NC(C)=C(C(=O)OC)C1c1cccc(OC)c1OCCO[N+](=O)[O-] [Example XVII, 3,5-Dimethoxycarbonyl-2,6-dimethyl-4-[3-methoxy-2-(2-nitroxyethoxy)phenyl]-1,4-dihydropyridine×H2 O]",88
15,"COC(=O)C1=C(C)NC(C)=C(C(=O)OC)C1c1ccccc1OCCCO[N+](=O)[O-] [Example XXVII, 3,5-Dimethoxycarbonyl-2,6-dimethyl-4-[2-(3-nitroxypropoxy)phenyl]-1,4-dihydropyridine]",5.7
16,"COC(=O)C1=C(C)NC(C)=C(C(=O)OC)C1c1ccccc1OCCO[N+](=O)[O-] [Example VII, 3,5-Dimethoxycarbonyl-2,6-dimethyl-4-[2-(2-nitroxy-ethoxy)phenyl]-1,4-dihydropyridine]",59
17,"CCOC(=O)C1=C(C)NC(C)=C(C(=O)OCC)C1c1ccccc1OCCOCCOCCO[N+](=O)[O-] [Example XX, 3,5-Diethoxycarbonyl-2,6-dimethyl-4-(2-{2-[2-(2-nitroxy-ethoxy)ethoxy]ethoxy}-phenyl)-1,4-dihydropyridine]",38
18,"COC(=O)C1=C(C)NC(C)=C(C(=O)OC)C1c1ccccc1OCCCCCCCCO[N+](=O)[O-] [Example XXXV, 2,6-Dimethyl-3,5-dimethoxycarbonyl-4-[2-(8-nitroxyoctyloxy)phenyl]-1,4-dihydropyridine]",5
19,"CCOC(=O)C1=C(C)NC(C)=C(C(=O)OCC)C1c1ccccc1OC[C@H]1CC[C@H](CO[N+](=O)[O-])CC1 [Example XXIV, 3,5-Diethoxycarbonyl-2,6-dimethyl-4-[2-[(4-nitroxymethyl-(trans)-cyclohexyl)methoxy]phenyl]-1,4-dihydropyridine]",7.8
20,"COC(=O)C1=C(C)NC(C)=C(C(=O)OC)C1c1cc(Br)ccc1OCCO[N+](=O)[O-] [XIX, 4-[5-Bromo-2-(2-nitroxyethoxy)phenyl]-3,5-dimethoxy-carbonyl-2,6-dimethyl-1,4-dihydropyridine]",80
21,"COC(=O)C1=C(C)NC(C)=C(C(=O)OC)C1c1cc([N+](=O)[O-])ccc1OCCO[N+](=O)[O-] [Example XIV, 3,5-Dimethoxycarbonyl-2,6-dimethyl-4-[2-(2-nitroxy-ethoxy)-5-nitrophenyl]-1,4-dihydropyridine]",80

# Test system: arterial blood pressure
# Test: Anesthetized rabbit experiments, lowering of arterial blood pressure
# Format: in vivo, New Zealand white rabbits
# Design: key: Inactive: No decrease or decrease less than 5%; Active: Decrease between 5 and 40%; Very Active: Decrease greater than 40%
# Settings: end of 10 min i.v. infusion at highest dose tested (150-200 μg×kg^-1×min^-1), decrease as percentage of basal value
# Description: […]
# Animals Anesthesia and Surgical Procedures
# New Zealand white rabbits (2.5-3 kg) were anesthetized (30 mg×kg^-1 pentobarbitone, i.v., supplemetal doses as needed). Tracheotomy was performed, and an intra-tracheal cannula was inserted. No artificial ventilation was applied and body temperature was maintained at 37°-38° C.
# Left ventricular pressure (LVP) was measured (millar Mikro-Tip catheter via the right carotid artery with transducer in the left ventricle). The LVP signal was differentiated electronically to obtain the rate of change of LVP (LV dP/dt). The heart rate (HR) was derived from the LVP pulse signal. The jugular vein was cannulated for infusion of the test compounds. Aortic blood pressure (SAP and DAP) was monitored (Gould-Statham pressure transducer) by inserting a polyethylene catheter filled with heparin (50 IU×ml^-1) through the femoral artery into the abdominal aorta. Heparin (150 IU×kg^-1, i.v.) was administered to prevent blood clotting.
# After completion of surgical procedures, the rabbits were allowed to recover for 15 minutes before drug administration was started.
# Infusion of Test Compounds and Test Protocol
# Drugs were infused at constant rate (0.5 ml×min^-1) for 10 minutes at various doses, resulting in a typical dose range of 2.0, 20.0 and 200 μg×kg^-1 ×min^-1 (2.5 kg rabbit).
# Due to poor solubility, 1 mg×ml^-1 solutions of all the compounds tested were prepared in Intralipid^(R) 10%, containing 10% (v/v) dimethyl sulfoxide (DMSO). […] At the infusion of lower doses, the 1 mg×ml^-1 stock solutions were diluted with Intralipid^(R) 10%.
# The presented data are based on the effects obtained at the end of the 10 min infusion period at the highest dose tested (150-200 μg×kg^-1 'min^-1).
# The indicated ratings are referring to the effects (decrease, defined as percentage of basal value before infusion of the drug) on arterial blood pressure as follows: […]
row,Compound,Activity with regard to the lowering of blood pressure
1,COC(=O)C1=C(C)NC(C)=C(C(=O)OC)C1c1cc(Cl)ccc1OCCO[N+](=O)[O-] [Example XV],Active
2,"COC(=O)C1=C(C)NC(C)=C(C(=O)OC)C1c1cccc(OC)c1OCCO[N+](=O)[O-] [Example XVII, 3,5-Dimethoxycarbonyl-2,6-dimethyl-4-[3-methoxy-2-(2-nitroxyethoxy)phenyl]-1,4-dihydropyridine×H2 O]",Active
3,"CCOC(=O)C1=C(C)NC(C)=C(C(=O)OCC)C1c1ccccc1OCCOCCOCCO[N+](=O)[O-] [Example XX, 3,5-Diethoxycarbonyl-2,6-dimethyl-4-(2-{2-[2-(2-nitroxy-ethoxy)ethoxy]ethoxy}-phenyl)-1,4-dihydropyridine]",Active
4,"CCOC(=O)C1=C(C)NC(C)=C(C(=O)OCC)C1c1ccc(OC(=O)CCCO[N+](=O)[O-])cc1 [Example I, 3,5-Diethoxycarbonyl-2,6-dimethyl-4-[4-(3-nitroxypropyl)carbonyloxy]phenyl-1,4-dihydropyridine]",Active
5,"CCOc1cccc(C2C(C(=O)OC)=C(C)NC(C)=C2C(=O)OC)c1OCCO[N+](=O)[O-] [Example XVIII, 3,5-Dimethoxycarbonyl-2,6-dimethyl-4-[3-ethoxy-2-(2-nitroxyethoxy)phenyl]-1,4-dihydropyridine×H2 O]",Active
6,"2,6-Dimethyl-3-methyloxycarbonyl-5-methyloxycarbonyl-4-[2-(nitroxyhexyloxyphenyl)]-1,4-dihydropyridine [Example XXXI]",Active
7,"COC(=O)C1=C(C)NC(C)=C(C(=O)OC)C1c1cc(Br)ccc1OCCO[N+](=O)[O-] [XIX, 4-[5-Bromo-2-(2-nitroxyethoxy)phenyl]-3,5-dimethoxy-carbonyl-2,6-dimethyl-1,4-dihydropyridine]",Active
